Legend:
[1] = target: T1, CLOCK and BMAL1 (Mus musculus, UniProt O08785+Q9WTL8); assay: Subcellular fractionation from mice liver; parameters: species or system mice (C57BL/6J); settings: in vivo and in vitro
T1 construct: from tissue; host or cells: liver of C57BL/6J mice
Method: 8-12 weeks old male C57BL/6J mice were used for in vivo studies. Mice weighing 24-28 grams were subjected to a single dose of CLK95 (50 mg/kg) or vehicle (DMSO:Cremophor EL: 0.9% NaCl; 2.5:15:82.5, v/v/v) intraperitoneally. Animals which were obtained from Koç University Animal Research Facility were fed ad libitum. Four hours after treatment, animals were sacrificed, and the internal organs were harvested.
Subcellular fractionation from mice liver was performed by using 10 mg tissue sample. Buffers that were used in this process are same as in given in section 3.13. First, the tissue was washed in 500 μL ice-cold 1×PBS buffer and then resuspended in 300 μL cytosolic lysis buffer by pipetting and incubated on ice for 10 min. Samples were centrifuged at 660×g for 5 minutes (4° C.) to get rid of cell debris. While supernatants were collected and transferred to new microcentrifuge tubes for processing later to give cytosolic fractions, pellets containing intact nucleus were washed 3 times with 300 μL cytosolic lysis buffer. At the end of each wash, suspensions were centrifugated for 5 minutes at 660×g (4° C.). […] Samples were analysed with Western blot as described earlier using anti-CLOCK (Bethyl, A302-618A), anti-BMAL1 (Santa Cruz Biotech., SC-365645), anti-CRY1 (Bethyl, A302-614A), anti-Histone H3 (Abcam, ab1791), and anti-αTUBULIN (Sigma-Aldrich, T9026) antibodies were used.

[2] = target: T2, CLOCK:BMAL1 complex (Homo sapiens, UniProt O00327+O15516); assay: Pull-down assay with biotinylated-CLK95; type: binding; settings: 20 μM bCLK95 bait, 200 μM CLK95 competitor; HEK 293T and U2OS lysates
T2 construct: expressed in transfected cells; host or cells: HEK 293T
T2 sequence (O15516 whole entry): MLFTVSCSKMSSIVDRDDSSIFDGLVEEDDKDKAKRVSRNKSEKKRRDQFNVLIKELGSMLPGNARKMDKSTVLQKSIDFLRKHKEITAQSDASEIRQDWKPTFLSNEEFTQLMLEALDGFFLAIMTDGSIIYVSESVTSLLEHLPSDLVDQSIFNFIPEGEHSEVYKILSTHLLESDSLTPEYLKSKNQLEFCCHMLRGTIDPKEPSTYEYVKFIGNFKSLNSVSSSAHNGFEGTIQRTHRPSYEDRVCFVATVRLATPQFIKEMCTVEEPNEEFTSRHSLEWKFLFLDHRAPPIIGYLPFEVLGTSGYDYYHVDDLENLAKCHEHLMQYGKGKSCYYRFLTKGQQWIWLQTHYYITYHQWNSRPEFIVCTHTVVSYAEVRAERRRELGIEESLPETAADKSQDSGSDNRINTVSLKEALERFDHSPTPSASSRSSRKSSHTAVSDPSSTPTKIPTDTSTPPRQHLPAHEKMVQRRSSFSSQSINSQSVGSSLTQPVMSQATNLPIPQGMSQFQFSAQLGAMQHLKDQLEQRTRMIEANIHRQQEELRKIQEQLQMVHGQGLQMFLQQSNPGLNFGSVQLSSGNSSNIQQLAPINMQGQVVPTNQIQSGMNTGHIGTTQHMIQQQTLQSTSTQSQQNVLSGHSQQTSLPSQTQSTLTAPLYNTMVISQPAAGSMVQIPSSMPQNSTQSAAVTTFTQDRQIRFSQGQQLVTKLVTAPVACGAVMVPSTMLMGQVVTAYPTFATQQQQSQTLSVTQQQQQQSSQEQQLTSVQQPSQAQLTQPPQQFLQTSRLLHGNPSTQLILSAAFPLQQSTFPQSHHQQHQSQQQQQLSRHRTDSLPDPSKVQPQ
T2 sequence (O00327 whole entry): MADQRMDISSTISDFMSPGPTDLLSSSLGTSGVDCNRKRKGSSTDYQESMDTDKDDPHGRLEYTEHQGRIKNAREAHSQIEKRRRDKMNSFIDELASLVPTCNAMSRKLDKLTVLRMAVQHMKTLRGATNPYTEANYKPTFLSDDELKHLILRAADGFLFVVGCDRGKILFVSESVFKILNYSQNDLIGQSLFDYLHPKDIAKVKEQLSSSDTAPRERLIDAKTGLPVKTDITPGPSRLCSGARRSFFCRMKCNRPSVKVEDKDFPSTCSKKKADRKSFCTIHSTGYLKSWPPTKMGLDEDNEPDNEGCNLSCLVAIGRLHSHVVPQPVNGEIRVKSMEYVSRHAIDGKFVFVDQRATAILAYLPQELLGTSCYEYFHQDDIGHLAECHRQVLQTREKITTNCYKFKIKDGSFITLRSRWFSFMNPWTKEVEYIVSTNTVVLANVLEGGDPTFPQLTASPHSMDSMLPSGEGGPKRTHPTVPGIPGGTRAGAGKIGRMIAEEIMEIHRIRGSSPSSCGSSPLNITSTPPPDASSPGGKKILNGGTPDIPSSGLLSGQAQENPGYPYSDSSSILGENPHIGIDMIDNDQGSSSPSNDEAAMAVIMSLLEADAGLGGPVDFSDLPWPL
Method: To perform pull-down assay HEK 293T cells were transiently transfected with either 10 μg pCMV-Sport6-CLOCK or 10 μg pCMV-Sport6-Bmal1 plasmids. First, cells were seeded in a 10 cm cell culture dish at a density which will give ˜70-80% confluency next day. Then cells were transfected with 10 μg of the appropriate plasmid using 30 μL PEI in 1 mL DMEM. Cells were harvested 24 hours post-transfection and divided into four 1.5 mL centrifuge tubes. The conditions that were employed to probe the binding of the molecule to proteins contained a) only CLOCK overexpressed, b) only BMAL1 overexpressed and c) CLOCK-BMAL1 overexpressed mixtures. Pellet for each condition was lysed with 500 μL Lysis Buffer (50 mM Tris-HCl PH 7.4, 2 mM EDTA, 1 mM MgCl2, 0.2% NP-40, 1 mM Na3VO4, 1 mM NaF, 1×PIC) and incubated on ice for 20 minutes. Then samples were centrifuged at 7000×g for 10 minutes at 4° C. The supernatants of the CLOCK and BMAL1 lysates were mixed at 1:1 ratio. Following this step, collected lysate mixture was mixed with 2× binding buffer (100 mM Tris-HCl pH 7.4, 300 mM NaCl, 0.2% NP-40, 2 mM Na3VO4, 2 mM NaF, 2×PIC) at 1:1 ratio. […]

CC1(c2ccc3ccccc3c2)NC(=O)N(CC(=O)Nc2nc(-c3ccc4c(c3)CCC4)cs2)C1=O (centres unmarked) [CLK95]
translocation of CLOCK and BMAL1 into the nucleus [1]: interfering with the translocation of CLOCK and BMAL1 into the nucleus both in vivo and in vitro
binding in pull-down [2]: specifically binding to CLOCK:BMAL1 complex

— patent US20250275948A1, “(N-[4-(2,3-DIHYDRO-1H-INDEN-5-YL)-1,3-THIAZOL-2-YL]-2-[4-METHYL-4-(NAPHTHALEN-2-YL)-2,5-DIOXOIMIDAZOLIDIN-1-YL]ACETAMIDE AS STABILIZER OF CLOCK:BMAL1 INTERACTION FOR THE TREATMENT OF CIRCADIAN RHYTHM DISEASES AND DISORDERS” (KOC UNIVERSITESI, priority 2022, published 2025)
